In US20230203043A1, “NOVEL IMIDAZOPYRAZINE DERIVATIVES” (Hoffmann-La Roche Inc., priority 2020, published 2023) one finds IC90 data, which are given here for 24 compounds.

Molecules are shown by their SMILES. Structures can show the parent of a compound that is named as a salt.

One test concerns Acinetobacter baumannii ATCC17961. In words: Antimicrobial susceptibility testing: 90% growth inhibitory concentration (IC90) determination in Iso-Sensitest broth, OD600 growth. Format: cell-based. The note with it: Acinetobacter baumannii, ATCC17961, 16 h, read-out: A. baumannii ATCC 17961 IC90 (uM), strain ATCC 17961, OD600 growth over 16 h. An outline of the steps: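 Twofold compound dilutions (e.g. 50 to 0.097 μM final) in Iso-Sensitest broth with ~5×10^(5) CFU/ml, 35±2 °C. OD600 read every 20 min over 16 h; IC90 from growth inhibition during logarithmic phase.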
For the compound `N#CCn1cc(-c2cnc3c(Nc4ccc(C(=O)N5CCN(C(=O)C6CCNCC6)CC5)c(Cl)c4)nccn23)c(C(F)(F)F)n1` [Example 366, 2-[4-[8-[3-chloro-4-[4-(piperidine-4-carbonyl)piperazine-1-carbonyl]anilino]imidazo[1,2-a]pyrazin-3-yl]-3-(trifluoromethyl)pyrazol-1-yl]acetonitrile formate], the IC90 was 0.296 µM.

Turning to `CCc1cc(Nc2nccn3c(-c4cn(CC(F)F)nc4C(F)(F)F)cnc23)ccc1C(=O)NCC(=O)NC1C2CNCC21` (stereo not drawn) [Example 529, N-[2-(3-azabicyclo[3.1.0]hexan-6-ylamino)-2-oxo-ethyl]-4-[[3-[1-(2,2-difluoroethyl)-3-(trifluoromethyl)pyrazol-4-yl]imidazo[1,2-a]pyrazin-8-yl]amino]-2-ethyl-benzamide formate], the IC90 was 0.248 µM.

Consider `CCc1cc(Nc2nccn3c(-c4c[nH]nc4C(F)(F)F)cnc23)ccc1C(=O)NCCCNC(=O)[C@@H](N)CCCCN` [Example 195, N-[3-[[(2S)-2,6-diaminohexanoyl]amino]propyl]-2-ethyl-4-[[3-[3-(trifluoromethyl)-1H-pyrazol-4-yl]imidazo[1,2-a]pyrazin-8-yl]amino]benzamide formate], for which the IC90 came out at 0.331 µM.

Regarding `N[C@@H]1CN[C@H](C(=O)N2CCN(C(=O)c3ccc(Nc4nccn5c(-c6c[nH]nc6C(F)(F)F)cnc45)cc3Cl)CC2)C1` [Example 295, [4-[(2S,4S)-4-aminopyrrolidine-2-carbonyl]piperazin-1-yl]-[2-chloro-4-[[3-[3-(trifluoromethyl)-1H-pyrazol-4-yl]imidazo[1,2-a]pyrazin-8-yl]amino]phenyl] methanone formate], the IC90 came out at 0.473 µM.

Take `N#CCCn1cc(-c2cnc3c(Nc4ccc(C(=O)N5CCN(C(=O)CCN)CC5)c(Cl)c4)nccn23)c(C(F)(F)F)n1` [Example 256, 3-[4-[8-[4-[4-(3-aminopropanoyl)piperazine-1-carbonyl]-3-chloroanilino]imidazo[1,2-a]pyrazin-3-yl]-3-(trifluoromethyl)pyrazol-1-yl]propanenitrile formate]: the IC90 stood at 0.358 µM.

On to `O=C(N[C@@H]1CCNC1)N1CCN(C(=O)c2ccc(Nc3nccn4c(-c5c[nH]nc5C(F)(F)F)cnc34)cc2Cl)CC1` [Example 391, 4-[2-chloro-4-[[3-[3-(trifluoromethyl)-1H-pyrazol-4-yl]imidazo[1,2-a]pyrazin-8-yl]amino]benzoyl]-N-[(3R)-pyrrolidin-3-yl]piperazine-1-carboxamide formate], for which the IC90 was determined as 0.203 µM.

On to `CCc1cc(Nc2nccn3c(-c4cn(CCC(C)(C)O)nc4C(F)(F)F)cnc23)ccc1C(=O)NCCOCCN` [Example 311, N-[2-(2-aminoethoxy)ethyl]-2-ethyl-4-[[3-[1-(3-hydroxy-3-methylbutyl)-3-(trifluoromethyl)pyrazol-4-yl]imidazo[1,2-a]pyrazin-8-yl]amino]benzamide formate], for which the IC90 was 0.769 µM.

`CCc1cc(Nc2nccn3c(-c4cn(CC(F)F)nc4C(F)(F)F)cnc23)ccc1C(=O)NCC1CNC1` [Example 557, N-(azetidin-3-ylmethyl)-4-((3-(1-(2,2-difluoroethyl)-3-(trifluoromethyl)-1H-pyrazol-4-yl)imidazo[1,2-a]pyrazin-8-yl)amino)-2-ethylbenzamide formate]: the IC90 came out at 0.144 µM.

For `Cc1cc(Nc2nccn3c(-c4cn(CC#N)nc4C(F)(F)F)cnc23)ccc1C(=O)N1CCN(C(=O)C2(O)CCNCC2)CC1` [Example 425, formic acid; 2-[4-[8-[4-[4-(4-hydroxypiperidine-4-carbonyl]piperazine-1-carbonyl]-3-methylanilino]imidazo[1,2-a]pyrazin-3-yl]-3-(trifluoromethyl)pyrazol-1-yl]acetonitrile], the concentration for an effect of 90% (IC90) was determined as 0.691 µM.

As for `CCc1cc(Nc2nccn3c(-c4cn(CC(F)F)nc4C(F)(F)F)cnc23)ccc1C(=O)NCC(=O)N1CCCC(N)C1` (stereo not drawn) [Example 544, N-[2-(3-amino-1-piperidyl)-2-oxo-ethyl]-4-[[3-[1-(2,2-difluoroethyl)-3-(trifluoromethyl)pyrazol-4-yl]imidazo[1,2-a]pyrazin-8-yl]amino]-2-ethyl-benzamide formate], the IC90 amounted to 0.232 µM.

The same test, now with this note: Acinetobacter baumannii, ATCC17961, 16 h, strain ATCC 17961, OD600 growth over 16 h, read-out: A. baumannii ATCC 17961 IC90.
For `NCCCCCCNC(=O)c1ccc(Nc2nccn3c(-c4cn(CC(F)F)nc4C(F)(F)F)cnc23)cc1Cl` [Example 826, N-(6-aminohexyl)-2-chloro-4-((3-(1-(2,2-difluoroethyl)-3-(trifluoromethyl)-1H-pyrazol-4-yl)imidazo[1,2-α]pyrazin-8-yl)amino)benzamide hydrochloride], the IC90 came to 0.11 µM.

As for `Cc1cc(Nc2nccn3c(-c4c[nH]nc4C(F)(F)F)cnc23)ccc1C(=O)N1CCN(C(=O)[C@H]2CCNC2)CC1` [Example 333, [2-methyl-4-[[3-[3-(trifluoromethyl)-1H-pyrazol-4-yl]imidazo[1,2-a]pyrazin-8-yl]amino]phenyl]-[4-[(3S)-pyrrolidine-3-carbonyl]piperazin-1-yl]methanone], the IC90 turned out to be 0.695 µM.

With `C#CCn1cc(-c2cnc3c(Nc4ccc(C(=O)N5CCN(C(=O)CN)CC5)c(CC)c4)nccn23)c(C(F)F)n1` [Example 793, 2-amino-1-(4-(4-((3-(3-(difluoromethyl)-1-(prop-2-yn-1-yl)-1H-pyrazol-4-yl)imidazo[1,2-a]pyrazin-8-yl)amino)-2-ethylbenzoyl)piperazin-1-yl)ethan-1-one], the IC90 came to 1.93 µM.

In the case of `CCc1cc(Nc2nccn3c(-c4cn(CC(F)F)nc4C(F)(F)F)cnc23)ccc1C(=O)NCC(=O)N1CC[C@H](N)C1` [Example 711, N-[2-[(3S)-3-aminopyrrolidin-1-yl]-2-oxo-ethyl]-4-[[3-[1-(2,2-difluoroethyl)-3-(trifluoromethyl)pyrazol-4-yl]imidazo[1,2-a]pyrazin-8-yl]amino]-2-ethyl-benzamide], the IC90 was 0.409 µM.

As for `Cc1cc(Nc2nccn3c(-c4c[nH]nc4C(F)(F)F)cnc23)cc(F)c1C(=O)N[C@H](C)CN` [Example 83, N-[(2R)-1-aminopropan-2-yl]-2-fluoro-6-methyl-4-[[3-[3-(trifluoromethyl)-1H-pyrazol-4-yl]imidazo[1,2-a]pyrazin-8-yl]amino]benzamide], the IC90 is 2.46 µM.

As for `C=CCn1cc(-c2cnc3c(Nc4cc(C)c(C(=O)N5CCNCC5)c(F)c4)nccn23)c(C(F)(F)F)n1` [Example 69, [2-fluoro-6-methyl-4-[[3-[1-prop-2-enyl-3-(trifluoromethyl)pyrazol-4-yl]imidazo[1,2-a]pyrazin-8-yl]amino]phenyl]-piperazin-1-ylmethanone], the IC90 came out at 0.433 µM.

For the compound `O=C(CNC(=O)c1ccc(Nc2nccn3c(-c4c[nH]nc4C(F)(F)F)cnc23)cc1Cl)N[C@@H]1CCNC1` [Example 139, 2-chloro-N-[2-oxo-2-[[(3R)-pyrrolidin-3-yl]amino]ethyl]-4-[[3-[3-(trifluoromethyl)-1H-pyrazol-4-yl]imidazo[1,2-a]pyrazin-8-yl]amino]benzamide], the IC90 is 2.8 µM.

As to `NCC(=O)N1CC2(C1)CN(C(=O)c1ccc(Nc3nccn4c(-c5c[nH]nc5C(F)(F)F)cnc34)cc1Cl)C2` [Example 658, 2-amino-1-(6-(2-chloro-4-((3-(3-(trifluoromethyl)-1H-pyrazol-4-yl)imidazo[1,2-a]pyrazin-8-yl)amino)benzoyl)-2,6-diazaspiro[3.3]heptan-2-yl)ethan-1-one], the IC90 is 0.269 µM.

For `Cc1cc(Nc2nccn3c(-c4cn(CC#N)nc4C(F)(F)F)cnc23)cc(F)c1C(=O)N1CCN(C(=O)[C@H]2C[C@@H](N)C2)CC1` [Example 699, 2-(4-(8-((4-(4-((1s,3s)-3-aminocyclobutane-1-carbonyl)piperazine-1-carbonyl)-3-fluoro-5-methylphenyl)amino)imidazo[1,2-a]pyrazin-3-yl)-3-(trifluoromethyl)-1H-pyrazol-1-yl) acetonitrile formate], the IC90 is 0.38 µM.

As for `CCc1cc(Nc2nccn3c(-c4c[nH]nc4C(F)(F)F)cnc23)ccc1C(=O)NCCCNC(=O)[C@H]1C[C@@H](N)C1` [Example 531, N-(3-((1s,3s)-3-aminocyclobutane-1-carboxamido)propyl)-2-ethyl-4-((3-(3-(trifluoromethyl)-1H-pyrazol-4-yl)imidazo [1,2-a]pyrazin-8-yl)amino)benzamide formate], the IC90 worked out at 0.299 µM.

For `CCc1cc(Nc2nccn3c(-c4cn(CC(F)F)nc4C(F)(F)F)cnc23)ccc1C(=O)N[C@@H](C)CN` [Example 57, N-[(2S)-1-aminopropan-2-yl]-4-[[3-[1-(2,2-difluoroethyl)-3-(trifluoromethyl)pyrazol-4-yl]imidazo[1,2-a]pyrazin-8-yl]amino]-2-ethylbenzamide], the IC90 was found to be 0.202 µM.

With `N#CCn1cc(-c2cnc3c(Nc4ccc(C(=O)N5CC6(CN(C(=O)CN)C6)C5)c(Cl)c4)nccn23)c(C(F)(F)F)n1` [Example 659, 2-(4-(8-((3-chloro-4-(6-glycyl-2,6-diazaspiro[3.3]heptane-2-carbonyl)phenyl)amino)imidazo[1,2-a]pyrazin-3-yl)-3-(trifluoromethyl)-1H-pyrazol-1-yl)acetonitrile], the IC90 came out at 0.27 µM.

Still in this test, the particulars now being: strain ATCC 17961, OD600 growth over 16 h, read-out: A. baumannii ATCC 17961 IC90.
Turning to `NC1CCC(NC(=O)c2ccc(Nc3nccn4c(-c5c[nH]nc5C(F)(F)F)cnc34)cc2Cl)CC1` (stereo not drawn) [Example 405, N-(4-aminocyclohexyl)-2-chloro-4-[[3-[3-(trifluoromethyl)-1H-pyrazol-4-yl]imidazo[1,2-a]pyrazin-8-yl]amino]benzamide], the IC90 is 1.3 µM.

For the compound `NCCOCCNC(=O)c1ccc(Nc2nccn3c(-c4cn(CC(F)F)nc4C(F)(F)F)cnc23)cc1Cl` [Example 252, N-[2-(2-aminoethoxy)ethyl]-2-chloro-4-[[3-[1-(2,2-difluoroethyl)-3-(trifluoromethyl)pyrazol-4-yl]imidazo[1,2-a]pyrazin-8-yl]amino] benzamide], the IC90 turned out to be 0.169 µM.
